For one assay, the target named is T1, SMARCA2 (Homo sapiens, UniProt P51531).
T1 construct: endogenous in cells; host or cells: RKO cells (CRL-2577, ATCC)
Description: SMARCA2 degradation analysis by imaging in RKO cells (DC50 A2). It is filed as cell-based. The conditions noted are these: tables 69, 70, 73, 76-78. The method, then: (§1) Determination of SMARCA2 and SMARCA4 Degradation (DC50 A2 and A4 [nM])
(§2) Protein Degradation Assays for SMARCA2 and SMARCA4
(§3) For degradation analysis by imaging, 1250 RKO cells (CRL-2577, ATCC) per well were seeded into 60 μL DMEM (Sigma Aldrich) supplemented with 10% FBS (Hyclone) in 384-well flat bottom plates (CellCarrier Ultra, Perkin Elmer) and incubated at 37° C. and 5% CO2 in a humidified atmosphere overnight. Compounds were added the next day using an Access Labcyte Workstation with a Labcyte Echo 550 or 555 acoustic dispenser and incubated with the cells for 4 or 24 h. Cells were fixed by adding 25 μL fixation buffer (7.4% formaldehyde (Sigma Aldrich F8775), 0.2% Triton TX100 (Sigma Aldrich F93443) in PBS) for 15 minutes at room temperature. After aspirating the fixing solution, the cells were washed once with 25 μL PBS and 25 μL of Blocking Buffer (10% Goat Serum in PBS) were added to each well and incubated for 30 minutes. Cells were washed with PBS and incubated with 20 μL mouse anti-Smarca4 (BRG1) antibody (Cell Signaling #52251) or rabbit anti-Smarca2 (BRM) antibody (Sigma Aldrich HPA029981) in blocking solution (PBS with 10% FCS) for ca. 2-4 h at RT. For detection of the nuclei, 25 μL of 5 μg/mL Hoechst 33342 (stock 10 mg/mL in H2O; Invitrogen H1399) were added together with Alexa Fluor 647 goat anti-mouse IgG (Invitrogen A-21235) or Alexa Fluor 488 goat anti-rabbit IgG (Invitrogen A-11034) in blocking solution and incubated for 60 min at RT. The cell layer was washed with 25 μL PBS, the wells were filled with 25 μL PBS and the plates sealed with an adhesive sheet. The mean intensity at 488 or 647 nm in the nucleus was measured using an Opera Phenix Plus High-Content Screening System (Perkin Elmer), values were normalized to the background and DMSO control and DC50 values were calculated and analyzed using a four-parametric logistic model.

For the next assay, the target named is T2, SMARCA4 (Homo sapiens, UniProt P51532).
T2 construct: endogenous in cells; host or cells: RKO cells (CRL-2577, ATCC)
Description: SMARCA4 degradation analysis by imaging in RKO cells (DC50 A4). It is filed as cell-based. The settings on record: tables 69, 70, 73, 76-78. The protocol: as §1, §2, §3

By DC50 is commonly meant the concentration at which degradation of the target reaches its halfway point. A low value points to degradation at low concentration.

Bounds are passed on as bounds.

T1 sequence (P51531 whole entry): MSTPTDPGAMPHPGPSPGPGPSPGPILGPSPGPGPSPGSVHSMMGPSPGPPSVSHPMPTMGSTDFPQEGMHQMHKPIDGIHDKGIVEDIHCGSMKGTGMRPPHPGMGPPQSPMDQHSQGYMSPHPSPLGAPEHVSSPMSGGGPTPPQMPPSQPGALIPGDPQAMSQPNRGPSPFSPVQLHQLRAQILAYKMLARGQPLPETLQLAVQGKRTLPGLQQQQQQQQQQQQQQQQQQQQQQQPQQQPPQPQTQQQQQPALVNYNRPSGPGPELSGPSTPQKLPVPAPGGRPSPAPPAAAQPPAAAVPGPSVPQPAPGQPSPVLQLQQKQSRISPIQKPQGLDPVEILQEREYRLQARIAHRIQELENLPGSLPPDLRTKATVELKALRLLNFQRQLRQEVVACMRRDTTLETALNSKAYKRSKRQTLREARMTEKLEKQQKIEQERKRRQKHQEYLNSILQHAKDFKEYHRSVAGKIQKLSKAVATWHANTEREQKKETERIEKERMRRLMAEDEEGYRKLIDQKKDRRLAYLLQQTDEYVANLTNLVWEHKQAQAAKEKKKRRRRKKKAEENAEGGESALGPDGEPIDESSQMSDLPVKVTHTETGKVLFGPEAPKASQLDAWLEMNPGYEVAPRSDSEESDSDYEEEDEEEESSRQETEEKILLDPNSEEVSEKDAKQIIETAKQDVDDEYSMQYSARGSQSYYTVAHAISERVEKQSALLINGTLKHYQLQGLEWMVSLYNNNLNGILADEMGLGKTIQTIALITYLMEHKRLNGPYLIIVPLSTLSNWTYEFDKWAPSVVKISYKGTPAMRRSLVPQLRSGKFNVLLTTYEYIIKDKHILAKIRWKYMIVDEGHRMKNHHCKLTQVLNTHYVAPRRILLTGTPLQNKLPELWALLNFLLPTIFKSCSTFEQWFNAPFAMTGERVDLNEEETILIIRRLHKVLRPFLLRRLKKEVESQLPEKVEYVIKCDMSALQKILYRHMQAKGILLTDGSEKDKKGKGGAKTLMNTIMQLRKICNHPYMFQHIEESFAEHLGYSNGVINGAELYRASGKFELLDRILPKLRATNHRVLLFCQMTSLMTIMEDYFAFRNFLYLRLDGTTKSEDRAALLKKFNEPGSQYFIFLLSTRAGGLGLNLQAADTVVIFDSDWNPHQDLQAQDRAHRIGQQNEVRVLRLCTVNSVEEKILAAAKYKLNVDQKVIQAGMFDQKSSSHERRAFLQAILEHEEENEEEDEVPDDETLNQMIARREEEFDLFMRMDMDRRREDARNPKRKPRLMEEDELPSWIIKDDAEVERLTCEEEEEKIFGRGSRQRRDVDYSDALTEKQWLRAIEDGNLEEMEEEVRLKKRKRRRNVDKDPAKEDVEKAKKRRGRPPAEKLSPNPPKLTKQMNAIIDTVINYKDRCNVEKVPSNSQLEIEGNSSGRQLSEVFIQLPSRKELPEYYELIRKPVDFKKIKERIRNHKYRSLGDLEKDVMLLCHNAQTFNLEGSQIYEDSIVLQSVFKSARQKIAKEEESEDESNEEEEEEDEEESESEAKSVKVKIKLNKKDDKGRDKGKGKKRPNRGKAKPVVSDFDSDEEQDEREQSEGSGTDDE
T2 sequence (P51532 whole entry): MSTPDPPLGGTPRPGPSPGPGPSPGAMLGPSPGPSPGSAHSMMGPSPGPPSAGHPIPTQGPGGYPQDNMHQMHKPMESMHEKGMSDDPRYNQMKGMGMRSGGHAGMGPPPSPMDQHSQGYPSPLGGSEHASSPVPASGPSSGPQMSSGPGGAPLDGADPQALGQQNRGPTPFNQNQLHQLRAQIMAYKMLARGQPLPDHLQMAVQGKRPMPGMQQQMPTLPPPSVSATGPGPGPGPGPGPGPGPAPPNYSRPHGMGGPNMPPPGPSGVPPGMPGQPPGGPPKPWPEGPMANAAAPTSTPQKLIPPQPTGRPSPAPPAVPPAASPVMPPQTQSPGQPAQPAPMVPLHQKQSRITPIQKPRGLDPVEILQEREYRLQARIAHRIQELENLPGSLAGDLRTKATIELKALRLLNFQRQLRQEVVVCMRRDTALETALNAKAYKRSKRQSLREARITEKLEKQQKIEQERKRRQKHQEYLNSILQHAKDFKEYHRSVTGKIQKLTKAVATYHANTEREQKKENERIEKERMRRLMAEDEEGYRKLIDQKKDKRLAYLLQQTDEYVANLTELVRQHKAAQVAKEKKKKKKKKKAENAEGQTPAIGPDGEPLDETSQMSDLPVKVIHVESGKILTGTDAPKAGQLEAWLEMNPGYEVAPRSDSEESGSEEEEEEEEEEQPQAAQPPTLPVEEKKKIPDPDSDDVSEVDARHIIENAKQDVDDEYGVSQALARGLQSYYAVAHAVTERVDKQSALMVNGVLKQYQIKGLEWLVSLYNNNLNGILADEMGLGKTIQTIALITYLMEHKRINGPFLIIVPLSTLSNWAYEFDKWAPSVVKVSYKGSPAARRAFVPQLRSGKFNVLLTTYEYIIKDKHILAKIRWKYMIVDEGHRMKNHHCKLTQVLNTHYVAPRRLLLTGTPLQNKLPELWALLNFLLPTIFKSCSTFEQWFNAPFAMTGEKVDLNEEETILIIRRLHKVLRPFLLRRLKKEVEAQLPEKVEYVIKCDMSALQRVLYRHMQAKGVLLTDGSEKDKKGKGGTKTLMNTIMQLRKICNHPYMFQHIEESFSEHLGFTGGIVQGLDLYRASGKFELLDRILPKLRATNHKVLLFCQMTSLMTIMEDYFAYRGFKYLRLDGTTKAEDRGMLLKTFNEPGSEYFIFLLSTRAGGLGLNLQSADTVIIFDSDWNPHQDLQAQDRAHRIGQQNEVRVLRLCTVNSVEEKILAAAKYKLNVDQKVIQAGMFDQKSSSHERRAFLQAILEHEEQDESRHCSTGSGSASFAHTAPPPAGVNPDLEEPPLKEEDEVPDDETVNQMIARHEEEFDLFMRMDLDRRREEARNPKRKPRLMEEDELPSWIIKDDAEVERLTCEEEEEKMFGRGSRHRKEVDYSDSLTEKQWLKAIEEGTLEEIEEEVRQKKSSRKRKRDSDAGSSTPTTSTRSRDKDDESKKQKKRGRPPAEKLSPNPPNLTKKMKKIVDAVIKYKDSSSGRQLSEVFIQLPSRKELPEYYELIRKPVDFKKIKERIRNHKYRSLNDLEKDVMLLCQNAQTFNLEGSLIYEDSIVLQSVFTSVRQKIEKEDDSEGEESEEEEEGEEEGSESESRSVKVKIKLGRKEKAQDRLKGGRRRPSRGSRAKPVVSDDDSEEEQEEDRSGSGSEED

Regarding `Cc1ncsc1-c1ccc([C@H](CC[C@H](C)CCN2CCC(c3ccc4c(c3)n(C3CCCC3)c3nc(=O)c5c(Br)cccc5n43)CC2)NC(=O)[C@@H]2C[C@@H](O)CN2C(=O)[C@@H](NC(=O)C2(F)CC2)C(C)(C)C)cc1` [Compound 42a], the DC50 was determined as 0.9 nM on SMARCA2 and 25 nM at SMARCA4.
The corresponding values for `Cc1ncsc1-c1ccc([C@H](CCCN2CCC(c3cc4c(cc3OCCCN(C)C)n3c5cccc(Br)c5c(=O)nc3n4C3CCCC3)CC2)NC(=O)[C@@H]2C[C@@H](O)CN2C(=O)[C@@H](NC(=O)C2(F)CC2)C(C)(C)C)cc1` [Compound 42aa] are 10 nM and 20 nM.
On the same counts, the results for `Cc1ncsc1-c1ccc([C@H](COCCN2CCC(c3cc4c(cc3OCCN3CCN(C)CC3)n3c5cccc(Br)c5c(=O)nc3n4C3CCCC3)CC2)NC(=O)[C@@H]2C[C@@H](O)CN2C(=O)[C@@H](NC(=O)C2(F)CC2)C(C)(C)C)cc1` [Compound 42ab] are 21 nM and above 200 nM.
As for `Cc1ncsc1-c1ccc([C@H](CO[C@@H](C)CN2CCC(c3ccc4c(c3)n(C3CCCC3)c3nc(=O)c5c(Br)cccc5n43)CC2)NC(=O)[C@@H]2C[C@@H](O)CN2C(=O)[C@@H](NC(=O)C2(F)CC2)C(C)(C)C)cc1` [Compound 42ac], the values for the 50% degradation concentration (DC50) on SMARCA2 and at SMARCA4 were 20 nM and above 200 nM, respectively.
On the same counts, the results for `Cc1ncsc1-c1ccc([C@H](CCCN2CCC(c3ccc4c(c3)n(C3COC3)c3nc(=O)c5c(Br)cccc5n43)CC2)NC(=O)[C@@H]2C[C@@H](O)CN2C(=O)[C@@H](NC(=O)C2(F)CC2)C(C)(C)C)cc1` [Compound 42ad] are 25 nM and above 200 nM.
The corresponding values for `CC(C)(C)[C@H](NC(=O)C1(F)CC1)C(=O)N1C[C@H](O)C[C@H]1C(=O)N[C@@H](CCCN1CCC(c2ccc3c(c2)n(C2CCCC2)c2nc(=O)c4c(Br)cccc4n32)CC1)c1ccc(-c2cncs2)cc1` [Compound 42ae] are 1 nM and 5 nM.
Take `Cc1ncsc1-c1ccc([C@H](COCC(O)CN2CCC(c3ccc4c(c3)n(C3CCCC3)c3nc(=O)c5c(Br)cccc5n43)CC2)NC(=O)[C@@H]2C[C@@H](O)CN2C(=O)[C@@H](NC(=O)C2(F)CC2)C(C)(C)C)cc1` (stereo partly drawn) [Compound 42af]: the DC50 at SMARCA2 came to 6 nM; at SMARCA4, 25 nM.
Regarding `CCn1c2cc(C3CCN(CCCCCOC[C@H](NC(=O)[C@@H]4C[C@@H](O)CN4C(=O)[C@@H](NC(=O)C4(N(C)C)CC4)C(C)(C)C)c4ccc(-c5scnc5C)cc4)CC3)c(OCCOCCOC)cc2n2c3cccc(Br)c3c(=O)nc12` [Compound 42ag], the half-maximal degradation concentration (DC50) at SMARCA2 is 9 nM; on SMARCA4, above 200 nM.
The corresponding values for `Cc1ncsc1-c1ccc([C@H](CCCN2CCC(c3ccc4c(c3)n(C3CCCC3)c3nc(=O)c5c(Br)cccc5n43)CC2)NC(=O)[C@@H]2C[C@@H](O)CN2C(=O)[C@@H](NC(=O)C2(N(C)C)CC2)C(C)(C)C)cc1` [Compound 42ah] are 2 nM and 17 nM.
Take `Cc1ncsc1-c1ccc([C@H](CCCCN2CCC(c3ccc4c(c3)n(C3CCCC3)c3nc(=O)c5c(Br)cccc5n43)CC2)NC(=O)[C@@H]2C[C@@H](O)CN2C(=O)[C@@H](NC(=O)C2(F)CC2)C(C)(C)C)cc1` [Compound 42ai]: the DC50 on SMARCA2 was found to be 2 nM; on SMARCA4, 9 nM.
`Cc1ncsc1-c1ccc([C@H](COCCN2CCC(c3ccc4c(c3)n(C3CCCC3)c3nc(=O)c5c(Br)cccc5n43)CC2)NC(=O)[C@@H]2C[C@@H](O)CN2C(=O)[C@@H](NC(=O)C2(N(C)C)CC2)C(C)(C)C)cc1` [Compound 42aj] displayed a DC50 on SMARCA2 of 4 nM.
Consider `Cc1ncsc1-c1ccc([C@H](COCCCN2CCC(c3ccc4c(c3)n(C3CCCC3)c3nc(=O)c5c(Br)cccc5n43)CC2)NC(=O)[C@@H]2C[C@@H](O)CN2C(=O)[C@@H](NC(=O)C2(F)CC2)C(C)(C)C)cc1` [Compound 42ak], for which the DC50 on SMARCA2 was 2 nM; on SMARCA4, 11 nM.
On to `Cc1ncsc1-c1ccc([C@H](CCCN2CCC(c3cc4c(cc3OCCOCCO)n3c5cccc(Br)c5c(=O)nc3n4C3CCCC3)CC2)NC(=O)[C@@H]2C[C@@H](O)CN2C(=O)[C@@H](NC(=O)C2(F)CC2)C(C)(C)C)cc1` [Compound 42am], for which the DC50 at SMARCA2 was found to be 0.9 nM; at SMARCA4, 25 nM.
Turning to `Cc1ncsc1-c1ccc([C@H](CO[C@H](C)CN2CCC(c3cc4c(cc3OC[C@@H]3CCCO3)n3c5cccc(Br)c5c(=O)nc3n4C3CCCC3)CC2)NC(=O)[C@@H]2C[C@@H](O)CN2C(=O)[C@@H](NC(=O)C2(F)CC2)C23CC4CC(CC(C4)C2)C3)cc1` [Compound 42an], the DC50 at SMARCA2 was found to be 0.6 nM; at SMARCA4 it was 7 nM.
`Cc1ncsc1-c1ccc([C@H](CCCCCN2CCN(c3ccc4c(c3)n(C3CCCC3)c3nc(=O)c5c(Br)cccc5n43)CC2(C)C)NC(=O)[C@@H]2C[C@@H](O)CN2C(=O)[C@@H](NC(=O)C2(F)CC2)C(C)(C)C)cc1` [Compound 42ao]: the 50% degradation concentration (DC50) on SMARCA2 was determined as 1 nM; at SMARCA4 it was 17 nM.
On the same counts, the results for `Cc1ncsc1-c1ccc([C@H](CCCCCN2CCN(c3ccc4c(c3)n(C3CCCC3)c3nc(=O)c5c(Br)cccc5n43)[C@H](C)C2)NC(=O)[C@@H]2C[C@@H](O)CN2C(=O)[C@@H](NC(=O)C2(F)CC2)C(C)(C)C)cc1` [Compound 42aq] are 1 nM and 9 nM.
In the case of `Cc1ncsc1-c1ccc([C@H](CCCCCN2CCN(c3ccc4c(c3)n(C3CCCC3)c3nc(=O)c5c(Br)cccc5n43)[C@@H](C)C2)NC(=O)[C@@H]2C[C@@H](O)CN2C(=O)[C@@H](NC(=O)C2(F)CC2)C(C)(C)C)cc1` [Compound 42ar], the DC50 on SMARCA2 worked out at 0.5 nM; at SMARCA4, 2 nM.
The corresponding values for `Cc1ncsc1-c1ccc([C@@H](CC[C@@H](C)CCN2CCC(c3ccc4c(c3)n(C3CCCC3)c3nc(=O)c5c(Br)cccc5n43)CC2)NC(=O)[C@@H]2C[C@@H](O)CN2C(=O)[C@@H](NC(=O)C2(F)CC2)C(C)(C)C)cc1` [Compound 42as] are 82 nM and above 833 nM.
Take `Cc1ncsc1-c1ccc([C@@H](CC[C@H](C)CCN2CCC(c3ccc4c(c3)n(C3CCCC3)c3nc(=O)c5c(Br)cccc5n43)CC2)NC(=O)[C@@H]2C[C@@H](O)CN2C(=O)[C@@H](NC(=O)C2(F)CC2)C(C)(C)C)cc1` [Compound 42at]: the half-maximal degradation concentration (DC50) on SMARCA2 is 57 nM; at SMARCA4, above 833 nM.
In the case of `Cc1ncsc1-c1ccc([C@H](CCCCCN2C[C@@H]3C[C@H]2CN3c2ccc3c(c2)n(C2CCCC2)c2nc(=O)c4c(Br)cccc4n32)NC(=O)[C@@H]2C[C@@H](O)CN2C(=O)[C@@H](NC(=O)C2(F)CC2)C(C)(C)C)cc1` [Compound 42au], the values for the DC50 on SMARCA2 and on SMARCA4 were 7 nM and above 833 nM, respectively.
Regarding `Cc1ncsc1-c1ccc([C@H](COCCN2CCC(c3cc4c(cc3F)n3c5cccc(Br)c5c(=O)nc3n4C3CCCC3)CC2)NC(=O)[C@@H]2C[C@@H](O)CN2C(=O)[C@@H](NC(=O)C2(F)CC2)C(C)(C)C)cc1` [Compound 42av], the DC50 stood at 13 nM on SMARCA2 and 162 nM on SMARCA4.
Take `Cc1ncsc1-c1ccc([C@H](CCCCCN2CCC(c3cc4c(cn3)n3c5cccc(Br)c5c(=O)nc3n4C3CCCC3)CC2)NC(=O)[C@@H]2C[C@@H](O)CN2C(=O)[C@@H](NC(=O)C2(F)CC2)C(C)(C)C)cc1` [Compound 42aw]: the values for the DC50 on SMARCA2 and on SMARCA4 were 6 nM and above 833 nM, respectively.
For `Cc1ncsc1-c1ccc([C@H](CCCCN(C)C2CCC(c3ccc4c(c3)n(C3CCCC3)c3nc(=O)c5c(Br)cccc5n43)CC2)NC(=O)[C@@H]2C[C@@H](O)CN2C(=O)[C@@H](NC(=O)C2(F)CC2)C(C)(C)C)cc1` (stereo partly drawn) [Compound 42ax], the 50% degradation concentration (DC50) on SMARCA2 stood at 7 nM; at SMARCA4, 29 nM.
On the same counts, the results for `COc1cc2c(cc1C1CCN(CCOC[C@H](NC(=O)[C@@H]3C[C@@H](O)CN3C(=O)[C@@H](NC(=O)C3(F)CC3)C(C)(C)C)c3ccc(-c4scnc4C)cc3)CC1)n(C1CCCC1)c1nc(=O)c3c(Br)cccc3n21` [Compound 42ay] are 15 nM and 109 nM.
Take `Cc1ncsc1-c1ccc([C@H](COCCN2CCC(c3cc4c(cc3OC3CCOC3)n3c5cccc(Br)c5c(=O)nc3n4C3CCCC3)CC2)NC(=O)[C@@H]2C[C@@H](O)CN2C(=O)[C@@H](NC(=O)C2(F)CC2)C(C)(C)C)cc1` (stereo partly drawn) [Compound 42az]: the DC50 came out at 36 nM on SMARCA2 and 800 nM at SMARCA4.
Regarding `Cc1ncsc1-c1ccc([C@H](CC[C@H](C)CCN2CCC(c3ccc4c(c3)n([C@H]3CCOC3)c3nc(=O)c5c(Br)cccc5n43)CC2)NC(=O)[C@@H]2C[C@@H](O)CN2C(=O)[C@@H](NC(=O)C2(F)CC2)C(C)(C)C)cc1` [Compound 42b], the DC50 at SMARCA2 is 2 nM; on SMARCA4, above 833 nM.

The values are drawn from US20250049929A1, “NOVEL TETRAHYDROQUINOLINES AND PROTEOLYSIS TARGETING CHIMERA (PROTACS) COMPRISING THEM AS DEGRADERS OF SMARCA” (Boehringer Ingelheim International GmbH, priority 2021, published 2025).
